These results are taken from patent US20140171431A1, “AZOLE HETEROCYCLIC COMPOUND, PREPARATION METHOD, PHARMACEUTICAL COMPOSITION AND USE” (priority 2011, published 2014).

In one assay the target is T1, Lp-PLA2 in human serum (Homo sapiens, UniProt Q13093).
T1 construct: from tissue
T1 sequence (Q13093 22-441): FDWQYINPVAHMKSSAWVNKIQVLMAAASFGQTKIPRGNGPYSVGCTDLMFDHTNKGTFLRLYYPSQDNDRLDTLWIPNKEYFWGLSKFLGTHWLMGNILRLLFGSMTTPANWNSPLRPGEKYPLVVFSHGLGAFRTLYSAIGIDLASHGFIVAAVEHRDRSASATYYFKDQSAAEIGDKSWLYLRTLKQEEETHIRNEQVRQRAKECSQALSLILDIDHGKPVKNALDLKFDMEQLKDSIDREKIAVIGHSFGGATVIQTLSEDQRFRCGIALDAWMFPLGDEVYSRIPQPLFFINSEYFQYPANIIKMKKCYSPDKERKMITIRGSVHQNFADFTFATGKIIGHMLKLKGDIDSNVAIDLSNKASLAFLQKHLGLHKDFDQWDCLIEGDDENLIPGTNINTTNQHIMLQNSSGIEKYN
The experiment in a line: In vitro inhibitory activity towards the enzyme Lp-PLA2 in human serum, [3H]PAF substrate. It counts as biochemical. The settings on record: for inhibition at 0.01 µM: 10 nM; for inhibition at 0.1 µM: 100 nM. The method, then:
The activities of compounds were measured using [^3H] labeled platelet activating factor ([^3H]PAF, Perkinelmer, Lot NET910) as the substrate. The reaction was carried out in a system containing 50 mmol/l HEPES and 150 mmol/l NaCl (pH 7.4) in a total volume of 200 μl. First, 10 μL human plasma and 10 μl DMSO solution of the test compound were added to the system and preincubated for 10 min at 37° C. Then 20 nM [^3H]PAF was added as listed in table 1 to start the reaction and incubated for a further 10 min at 37° C. After that, 600 μl of CHCl3/MeOH (2:1) was added and the resulting mixture was mixed with vortex. After settled for a while, the mixture was centrifugated at 12000×g for 15 min. The supernatant was transferred to a new tube and 200 μl of CHCl3 was added and mixed by vortexing. The mixture was settled or centrifugated for 2 min. A 100 μl portion of the supernatant was then collected for radioactivity intensity measurement.

The target in the next assay is T2, Lp-PLA2 in rabbit serum (Oryctolagus cuniculus, UniProt G1SE06).
T2 construct: from tissue; host or cells: rabbit serum
T2 sequence (G1SE06 22-423): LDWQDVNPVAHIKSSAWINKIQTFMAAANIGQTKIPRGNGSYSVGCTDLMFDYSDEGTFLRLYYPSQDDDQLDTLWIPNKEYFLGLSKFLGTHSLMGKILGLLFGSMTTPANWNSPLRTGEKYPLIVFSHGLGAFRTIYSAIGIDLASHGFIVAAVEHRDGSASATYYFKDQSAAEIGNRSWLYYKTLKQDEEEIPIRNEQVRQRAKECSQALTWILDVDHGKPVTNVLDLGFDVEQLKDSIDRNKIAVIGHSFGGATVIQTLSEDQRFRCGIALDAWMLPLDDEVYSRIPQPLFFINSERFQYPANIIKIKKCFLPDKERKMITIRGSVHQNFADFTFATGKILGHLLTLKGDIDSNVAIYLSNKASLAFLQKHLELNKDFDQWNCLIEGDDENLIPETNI
The experiment in a line: In vitro inhibitory activity towards the enzyme Lp-PLA2 in rabbit serum, [3H]PAF substrate. The format is biochemical. The following applies: 100 nM.

The mark [1] stands for this setting: human serum, read-out: inhibition, %.
Where [2] appears, read: rabbit serum, read-out: inhibition, %.
Where [3] appears, read: read-out: inhibitory rate towards the human serum derived Lp-PLA2 enzyme.
The mark [4] stands for this setting: read-out: inhibitory rate towards the rabbit serum derived Lp-PLA2 enzyme.

Like-named read-outs stand apart in the source and are kept apart here.

`O=c1nc(SCc2ccc(F)cc2)n(Cc2nnc(CO)n2Cc2ccc(-c3ccc(C(F)(F)F)cc3)cc2)c2c1CCC2` [Example 72, 2-(4-fluorobenzylthio)-1-((5-(hydroxymethyl)-4-((4′-(trifluoromethyl)biphenyl-4-yl)methyl)-4H-1,2,4-triazol-3-yl)methyl)-6,7-dihydro-1H-cyclopenta[d]pyrimidin-4(5H)-one]: at Lp-PLA2 in human serum (setting [1]), the inhibition at 0.01 µM worked out at 65%. Further, the inhibition at 0.1 µM at Lp-PLA2 in human serum (human serum) worked out at 91%; on Lp-PLA2 in rabbit serum (setting [2]) it was 73%.
As for `CN(C)Cc1nnc(Cn2c(SCc3ccc(F)cc3)nc(=O)c3c2CCC3)n1Cc1ccc(-c2ccc(C(F)(F)F)cc2)cc1` [Example 75, 1-((5-((dimethylamino)methyl)-4-((4′-(trifluoromethyl)biphenyl-4-yl)methyl)-4H-1,2,4-triazol-3-yl)methyl)-2-(4-fluorobenzylthio)-6,7-dihydro-1H-cyclopenta[d]pyrimidin-4(5H)-one], the inhibition at 0.01 µM at Lp-PLA2 in human serum (setting [1]) is 85%. For the same compound, the inhibition at 0.1 µM was 97% against Lp-PLA2 in human serum (human serum) and 88.3% at Lp-PLA2 in rabbit serum (setting [2]).
For `C[N+](C)(Cc1ccc(F)cc1)Cc1nnc(Cn2c(SCc3ccc(F)cc3)nc(=O)c3c2CCC3)n1Cc1ccc(-c2ccc(C(F)(F)F)cc2)cc1` [Example 76, N-(4-fluorobenzyl)-1-(5-((2-(4-fluorobenzylthio)-4-oxo-4,5,6,7-tetrahydro-1H-cyclopenta[d]pyrimidin-1-yl)methyl)-4-((4′-(trifluoromethyl)biphenyl-4-yl)methyl)-4 H-1,2,4-triazol-3-yl)-N,N-dimethylmethanaminium bromide], the inhibition at 0.01 µM at Lp-PLA2 in human serum (setting [1]) was 100%; at Lp-PLA2 in human serum (setting [3]), over 80%. The inhibition at 0.1 µM was 100% at Lp-PLA2 in human serum (human serum), 97% on Lp-PLA2 in rabbit serum (setting [2]) and over 90% at Lp-PLA2 in rabbit serum (setting [4]).
As to `C[N+](C)(C)Cc1nnc(Cn2c(SCc3ccc(F)cc3)nc(=O)c3c2CCC3)n1Cc1ccc(-c2ccc(C(F)(F)F)cc2)cc1` [Example 77, 1-(5-((2-(4-fluorobenzylthio)-4-oxo-4,5,6,7-tetrahydro-1H-cyclopenta[d]pyrimidin-1-yl)methyl)-4-((4′-(trifluoromethyl)biphenyl-4-yl)methyl)-4H-1,2,4-triazol-3-yl)-N,N,N-trimethylmethanaminium iodide], the values for the inhibition at 0.01 µM at Lp-PLA2 in human serum (setting [1]) and at Lp-PLA2 in human serum (setting [3]) were 97% and over 80%, respectively. In addition, the inhibition at 0.1 µM against Lp-PLA2 in human serum (human serum) was 98%; on Lp-PLA2 in rabbit serum (setting [2]), 93%; at Lp-PLA2 in rabbit serum (setting [4]), over 90%.
For `CCN(CC)Cc1nnc(Cn2c(SCc3ccc(F)cc3)nc(=O)c3c2CCC3)n1Cc1ccc(-c2ccc(C(F)(F)F)cc2)cc1` [Example 79, 1-((5-((diethylamino)methyl)-4-((4′-(trifluoromethyl)biphenyl-4-yl)methyl)-4H-1,2,4-triazol-3-yl)methyl)-2-(4-fluorobenzylthio)-6,7-dihydro-1H-cyclopenta[d]pyrimidin-4(5H)-one], the inhibition at 0.01 µM at Lp-PLA2 in human serum (setting [1]) was found to be 68%. Further, the inhibition at 0.1 µM came to 93% on Lp-PLA2 in human serum (human serum) and 85.3% on Lp-PLA2 in rabbit serum (setting [2]).
On to `CN(Cc1ccc(F)cc1)Cc1nnc(Cn2c(SCc3ccc(F)cc3)nc(=O)c3c2CCC3)n1Cc1ccc(-c2ccc(C(F)(F)F)cc2)cc1` [Example 81, 1-((5-(((4-fluorobenzyl)(methyl)amino)methyl)-4-((4′-(trifluoromethyl)biphenyl-4-yl)methyl)-4H-1,2,4-triazol-3-yl)methyl)-2-(4-fluorobenzylthio)-6,7-dihydro-1H-cyclopenta[d]pyrimidin-4(5H)-one], for which the inhibition at 0.01 µM was 93% at Lp-PLA2 in human serum (setting [1]) and over 80% at Lp-PLA2 in human serum (setting [3]). In addition, the results for the inhibition at 0.1 µM against Lp-PLA2 in human serum (human serum), at Lp-PLA2 in rabbit serum (setting [2]) and at Lp-PLA2 in rabbit serum (setting [4]) were 98%, 90% and over 90%, respectively.
Take `CC(C)N(C)Cc1nnc(Cn2c(SCc3ccc(F)cc3)nc(=O)c3c2CCC3)n1Cc1ccc(-c2ccc(C(F)(F)F)cc2)cc1` [Example 82, 2-(4-fluorobenzylthio)-1-((5-((isopropyl(methyl)amino)methyl)-4-((4′-(trifluoromethyl)biphenyl-4-yl)methyl)-4H-1,2,4-triazol-3-yl)methyl)-6,7-dihydro-1H-cyclopenta[d]pyrimidin-4(5H)-one]: the inhibition at 0.01 µM at Lp-PLA2 in human serum (setting [1]) stood at 77%. Besides, the inhibition at 0.1 µM at Lp-PLA2 in human serum (human serum) was 98%; on Lp-PLA2 in rabbit serum (setting [2]), 85%.
In the case of `C[C@@H]1CN(Cc2nnc(Cn3c(SCc4ccc(F)cc4)nc(=O)c4c3CCC4)n2Cc2ccc(-c3ccc(C(F)(F)F)cc3)cc2)C[C@H](C)O1` [Example 84, 1-((5-(((2S,6R)-2,6-dimethylmorpholino)methyl)-4-((4′-(trifluoromethyl)biphenyl-4-yl)methyl)-4H-1,2,4-triazol-3-yl)methyl)-2-(4-fluorobenzylthio)-6,7-dihydro-1H-cyclopenta[d]pyrimidin-4(5H)-one], the inhibition at 0.01 µM at Lp-PLA2 in human serum (setting [1]) was found to be 69%. The inhibition at 0.1 µM on Lp-PLA2 in human serum (human serum) was 91%; at Lp-PLA2 in rabbit serum (setting [2]) it was 76%.
Take `COC(=O)C(C)(C)NCc1nnc(Cn2c(SCc3ccc(F)cc3)nc(=O)c3c2CCC3)n1Cc1ccc(-c2ccc(C(F)(F)F)cc2)cc1` [Example 85, methyl-2-((5-((2-(4-fluorobenzylthio)-4-oxo-4,5,6,7-tetrahydro-1H-cyclopenta[d]pyrimidin-1-yl)methyl)-4-((4′-(trifluoromethyl)biphenyl-4-yl)methyl)-4H-1,2,4-triazol-3-yl)methylamino)-2-methylpropanoate]: the inhibition at 0.01 µM on Lp-PLA2 in human serum (setting [1]) came out at 59%. The inhibition at 0.1 µM was determined as 91% against Lp-PLA2 in human serum (human serum) and 77% on Lp-PLA2 in rabbit serum (setting [2]).
Turning to `CCN1CCN(Cc2nnc(Cn3c(SCc4ccc(F)cc4)nc(=O)c4c3CCC4)n2Cc2ccc(-c3ccc(C(F)(F)F)cc3)cc2)CC1` [Example 86, 1-((5-((4-ethylpiperazin-1-yl)methyl)-4-((4′-(trifluoromethyl)biphenyl-4-yl)methyl)-4H-1,2,4-triazol-3-yl)methyl)-2-(4-fluorobenzylthio)-6,7-dihydro-1H-cyclopenta[d]pyrimidin-4(5H)-one], the inhibition at 0.01 µM on Lp-PLA2 in human serum (setting [1]) was 82%; on Lp-PLA2 in human serum (setting [3]) it was over 80%. The inhibition at 0.1 µM against Lp-PLA2 in human serum (human serum) was 96%; on Lp-PLA2 in rabbit serum (setting [2]), 90%; on Lp-PLA2 in rabbit serum (setting [4]), over 90%.
For `COC(=O)C(C)(C)N1CCN(Cc2nnc(Cn3c(SCc4ccc(F)cc4)nc(=O)c4c3CCC4)n2Cc2ccc(-c3ccc(C(F)(F)F)cc3)cc2)CC1` [Example 88, methyl-2-(4-((5-((2-(4-fluorobenzylthio)-4-oxo-4,5,6,7-tetrahydro-1H-cyclopenta[d]pyrimidin-1-yl)methyl)-4-((4′-(trifluoromethyl)biphenyl-4-yl)methyl)-4H-1,2,4-triazol-3-yl)methyl)piperazin-1-yl)-2-methylpropanoate], the inhibition at 0.01 µM at Lp-PLA2 in human serum (setting [1]) came to 59%. The inhibition at 0.1 µM at Lp-PLA2 in human serum (human serum) stood at 91%; on Lp-PLA2 in rabbit serum (setting [2]), 67%.
As for `CN(Cc1nnc(Cn2c(SCc3ccc(F)cc3)nc(=O)c3c2CCC3)n1Cc1ccc(-c2ccc(C(F)(F)F)cc2)cc1)C1CC1` [Example 101, 1-((5-((cyclopropyl(methyl)amino)methyl)-4-((4′-(trifluoromethyl)biphenyl-4-yl)methyl)-4H-1,2,4-triazol-3-yl)methyl)-2-(4-fluorobenzylthio)-6,7-dihydro-1H-cyclopenta[d]pyrimidin-4(5H)-one], at Lp-PLA2 in human serum (setting [1]), the inhibition at 0.01 µM is 77%. The values for the inhibition at 0.1 µM against Lp-PLA2 in human serum (human serum) and at Lp-PLA2 in rabbit serum (setting [2]) were 96% and 86%, respectively.
Turning to `O=C1NCCN1CCNCc1nnc(Cn2c(SCc3ccc(F)cc3)nc(=O)c3c2CCC3)n1Cc1ccc(-c2ccc(C(F)(F)F)cc2)cc1` [Example 102, 2-(4-fluorobenzylthio)-1-((5-((2-(2-oxoimidazolidin-1-yl)ethylamino)methyl)-4-((4′-(trifluoromethyl)biphenyl-4-yl)methyl)-4H-1,2,4-triazol-3-yl)methyl)-6,7-dihydro-1H-cyclopenta[d]pyrimidin-4(5H)-one], the inhibition at 0.01 µM at Lp-PLA2 in human serum (setting [1]) stood at 77%. On Lp-PLA2 in rabbit serum (setting [2]), the inhibition at 0.1 µM was determined as 97%.
